According to patent US12071425B2 (Genentech, Inc., priority 2018, dated 2024):

Target: kinase domain of IRE1 alpha (His-tagged kinase dead construct KR, AA G547-L977, D688N) (Homo sapiens (Human), UniProt O75460, D688N)
Experiment: IRE1α TR-FRET competition binding assay
Conditions: competition with Kinase Tracer 236, 0.1 μM; one hour at room temperature
Procedure, shortened: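 Sf9-expressed kinase-dead KR construct (0.006 μM final) pre-incubated 1 h at 4° C with Eu anti-His antibody (0.002 μM) in HEPES pH 7.5/MgCl2/Brij/DTT buffer; Kinase Tracer 236 (ATP-competitive probe, 0.1 μM final) added with compound. 1 h at room temperature; tracer displacement read by TR-FRET (665/615 nm).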

Chain of kinase domain of IRE1 alpha (His-tagged kinase dead construct KR, AA G547-L977, D688N) (O75460 547-977 D688N): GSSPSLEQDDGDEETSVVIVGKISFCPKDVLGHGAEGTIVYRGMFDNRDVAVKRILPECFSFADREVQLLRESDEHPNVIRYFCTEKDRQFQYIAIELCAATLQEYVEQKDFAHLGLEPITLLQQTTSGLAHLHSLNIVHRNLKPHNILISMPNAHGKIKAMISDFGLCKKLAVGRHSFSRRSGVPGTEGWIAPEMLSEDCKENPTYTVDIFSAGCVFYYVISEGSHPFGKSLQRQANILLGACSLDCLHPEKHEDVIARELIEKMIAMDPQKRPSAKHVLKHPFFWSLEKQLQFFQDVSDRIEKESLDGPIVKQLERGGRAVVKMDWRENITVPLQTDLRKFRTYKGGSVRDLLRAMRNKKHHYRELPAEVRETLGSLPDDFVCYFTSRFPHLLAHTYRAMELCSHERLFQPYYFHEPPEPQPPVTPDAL

| SMILES | IC50 |
| --- | --- |
| Cc1cc(CS(=O)(=O)Nc2c(F)cc(Oc3ncccc3-c3ccnc(N[C@@H]4CNC[C@@](C)(F)C4)n3)c(F)c2F)no1 [Compound 203, 1-(5-methylisoxazol-3-yl)-N-(2,3,6-trifluoro-4-((3-(2-(((3S,5S)-5-fluoro-5-methylpiperidin-3-yl)amino)pyrimidin-4-yl)pyridin-2-yl)oxy)phenyl)methanesulfonamide] | 3.3 nM |
| Cc1cc(CS(=O)(=O)Nc2c(F)cc(Oc3ncccc3-c3ccnc(N[C@@H]4CNC[C@@H](F)C4)n3)c(F)c2F)no1 [Compound 204, 1-(5-methylisoxazol-3-yl)-N-(2,3,6-trifluoro-4-((3-(2-(((3S,5S)-5-fluoropiperidin-3-yl)amino)pyrimidin-4-yl)pyridin-2-yl)oxy)phenyl)methanesulfonamide] | 4.1 nM |
| O=S(=O)(CCC(F)(F)F)Nc1c(F)cc(Oc2ncccc2-c2ccnc(N[C@@H]3CNC[C@@H](F)C3)n2)c(F)c1F [Compound 205, 3,3,3-trifluoro-N-(2,3,6-trifluoro-4-((3-(2-(((3S,5S)-5-fluoro-3-piperidyl)amino)pyrimidin-4-yl)-2-pyridyl)oxy)phenyl)propane-1-sulfonamide] | 4.4 nM |
| O=S(=O)(Nc1ccc(Oc2ncccc2-c2ccnc(N[C@H]3CCCNC3)n2)c(F)c1F)c1cc(F)cc(F)c1 [Compound 206, N-[2,3-Difluoro-4-[[3-[2-[[(3S)-3-piperidyl]amino]pyrimidin-4-yl]-2-pyridyl]oxy]phenyl]-3,5-difluoro-benzenesulfonamide] | 8.2 nM |
| O=S(=O)(Nc1ccc(Oc2ncccc2-c2ccnc(N[C@H]3CCCNC3)n2)c(F)c1F)c1cccc(OC(F)(F)F)c1 [Compound 207, (S)-N-(2,3-difluoro-4-((3-(2-(piperidin-3-ylamino)pyrimidin-4-yl)pyridin-2-yl)oxy)phenyl)-3-(trifluoromethoxy)benzenesulfonamide] | 7.4 nM |
| O=S(=O)(Nc1ccc(Oc2ncccc2-c2ccnc(N[C@H]3CCCNC3)n2)c(F)c1F)c1cccc(OC(F)F)c1 [Compound 208, (S)-N-(2,3-difluoro-4-((3-(2-(piperidin-3-ylamino)pyrimidin-4-yl)pyridin-2-yl)oxy)phenyl)-3-(difluoromethoxy)benzenesulfonamide] | 11 nM |
| O=S(=O)(CC1CC2(CCC2)C1)Nc1ccc(Oc2ncccc2-c2ccnc(N[C@H]3CCCNC3)n2)c(F)c1F [Compound 209, (S)-N-(2,3-difluoro-4-((3-(2-(piperidin-3-ylamino)pyrimidin-4-yl)pyridin-2-yl)oxy)phenyl)-1-(spiro[3.3]heptan-2-yl)methanesulfonamide] | 7.5 nM |
| CC(C)(C#N)CCS(=O)(=O)Nc1ccc(Oc2ncccc2-c2ccnc(N[C@H]3CCCNC3)n2)c(F)c1F [Compound 210, (S)-3-cyano-N-(2,3-difluoro-4-((3-(2-(piperidin-3-ylamino)pyrimidin-4-yl)pyridin-2-yl)oxy)phenyl)-3-methylbutane-1-sulfonamide] | 23 nM |
| COc1ccc(S(=O)(=O)Nc2ccc(Oc3ncccc3-c3ccnc(N[C@H]4CCCNC4)n3)c(F)c2F)cc1 [Compound 211, (S)-N-(2,3-difluoro-4-((3-(2-(piperidin-3-ylamino)pyrimidin-4-yl)pyridin-2-yl)oxy)phenyl)-4-methoxybenzenesulfonamide] | 33 nM |
| COc1cccc(S(=O)(=O)Nc2ccc(Oc3ncccc3-c3ccnc(N[C@H]4CCCNC4)n3)c(F)c2F)c1 [Compound 212, (S)-N-(2,3-difluoro-4-((3-(2-(piperidin-3-ylamino)pyrimidin-4-yl)pyridin-2-yl)oxy)phenyl)-3-methoxybenzenesulfonamide] | 25 nM |
| O=S(=O)(Cc1ccc(Cl)cc1)Nc1ccc(Oc2ncccc2-c2ccnc(N[C@H]3CCCNC3)n2)c(F)c1F [Compound 213, (S)-1-(4-chlorophenyl)-N-(2,3-difluoro-4-((3-(2-(piperidin-3-ylamino)pyrimidin-4-yl)pyridin-2-yl)oxy)phenyl)methanesulfonamide] | 5.9 nM |
| O=S(=O)(Nc1ccc(Oc2ncccc2-c2ccnc(N[C@H]3CCCNC3)n2)c(F)c1F)c1cccnc1 [Compound 214, (S)-N-(2,3-difluoro-4-((3-(2-(piperidin-3-ylamino)pyrimidin-4-yl)pyridin-2-yl)oxy)phenyl)pyridine-3-sulfonamide] | 44 nM |
| O=S(=O)(CCC1CCCCC1)Nc1ccc(Oc2ncccc2-c2ccnc(N[C@H]3CCCNC3)n2)c(F)c1F [Compound 215, (S)-2-cyclohexyl-N-(2,3-difluoro-4-((3-(2-(piperidin-3-ylamino)pyrimidin-4-yl)pyridin-2-yl)oxy)phenyl)ethane-1-sulfonamide] | 11 nM |
| CC(C)(CC#N)CS(=O)(=O)Nc1ccc(Oc2ncccc2-c2ccnc(N[C@H]3CCCNC3)n2)c(F)c1F [Compound 216, (S)-3-cyano-N-(2,3-difluoro-4-((3-(2-(piperidin-3-ylamino)pyrimidin-4-yl)pyridin-2-yl)oxy)phenyl)-2,2-dimethylpropane-1-sulfonamide] | 13 nM |
| O=S(=O)(CCC1CC1(F)F)Nc1ccc(Oc2ncccc2-c2ccnc(N[C@H]3CCCNC3)n2)c(F)c1F (stereo partly drawn) [Compound 217, N-(2,3-difluoro-4-((3-(2-(((S)-piperidin-3-yl)amino)pyrimidin-4-yl)pyridin-2-yl)oxy)phenyl)-2-(2,2-difluorocyclopropyl)ethane-1-sulfonamide] | 16 nM |
| O=S(=O)(Nc1ccc(Oc2ncccc2-c2ccnc(N[C@H]3CCCNC3)n2)c(F)c1F)c1ccccc1 [Compound 218, (S)-N-(2,3-difluoro-4-((3-(2-(piperidin-3-ylamino)pyrimidin-4-yl)pyridin-2-yl)oxy)phenyl)benzenesulfonamide] | 16 nM |

Second part, the compound after the results:

| IC50 | SMILES |
| --- | --- |
| 53 nM | N#Cc1ccc(S(=O)(=O)Nc2ccc(Oc3ncccc3-c3ccnc(N[C@H]4CCCNC4)n3)c(F)c2F)cc1 [Compound 219, (S)-4-cyano-N-(2,3-difluoro-4-((3-(2-(piperidin-3-ylamino)pyrimidin-4-yl)pyridin-2-yl)oxy)phenyl)benzenesulfonamide] |
| 19 nM | N#Cc1cccc(S(=O)(=O)Nc2ccc(Oc3ncccc3-c3ccnc(N[C@H]4CCCNC4)n3)c(F)c2F)c1 [Compound 220, (S)-3-cyano-N-(2,3-difluoro-4-((3-(2-(piperidin-3-ylamino)pyrimidin-4-yl)pyridin-2-yl)oxy)phenyl)benzenesulfonamide] |
| 380 nM | Cn1cnc(S(=O)(=O)Nc2ccc(Oc3ncccc3-c3ccnc(N[C@H]4CCCNC4)n3)c(F)c2F)c1 [Compound 221, (S)-N-(2,3-difluoro-4-((3-(2-(piperidin-3-ylamino)pyrimidin-4-yl)pyridin-2-yl)oxy)phenyl)-1-methyl-1H-imidazole-4-sulfonamide] |
| 240 nM | Cn1cc(S(=O)(=O)Nc2ccc(Oc3ncccc3-c3ccnc(N[C@H]4CCCNC4)n3)c(F)c2F)cn1 [Compound 222, (S)-N-(2,3-difluoro-4-((3-(2-(piperidin-3-ylamino)pyrimidin-4-yl)pyridin-2-yl)oxy)phenyl)-1-methyl-1H-pyrazole-4-sulfonamide] |
| 26 nM | O=S(=O)(Nc1ccc(Oc2ncccc2-c2ccnc(N[C@H]3CCCNC3)n2)c(F)c1F)c1ccc(OC(F)(F)F)cc1 [Compound 223, (S)-N-(2,3-difluoro-4-((3-(2-(piperidin-3-ylamino)pyrimidin-4-yl)pyridin-2-yl)oxy)phenyl)-4-(trifluoromethoxy)benzenesulfonamide] |
| 40 nM | COc1ccccc1S(=O)(=O)Nc1ccc(Oc2ncccc2-c2ccnc(N[C@H]3CCCNC3)n2)c(F)c1F [Compound 224, (S)-N-(2,3-difluoro-4-((3-(2-(piperidin-3-ylamino)pyrimidin-4-yl)pyridin-2-yl)oxy)phenyl)-2-methoxybenzenesulfonamide] |
| 6.1 nM | O=S(=O)(Cc1cccc(Cl)c1)Nc1ccc(Oc2ncccc2-c2ccnc(N[C@H]3CCCNC3)n2)c(F)c1F [Compound 225, (S)-1-(3-chlorophenyl)-N-(2,3-difluoro-4-((3-(2-(piperidin-3-ylamino)pyrimidin-4-yl)pyridin-2-yl)oxy)phenyl)methanesulfonamide] |
| 18 nM | CC(C)(C)CCS(=O)(=O)Nc1ccc(Oc2ncccc2-c2ccnc(N[C@H]3CCCNC3)n2)c(F)c1F [Compound 226, (S)-N-(2,3-difluoro-4-((3-(2-(piperidin-3-ylamino)pyrimidin-4-yl)pyridin-2-yl)oxy)phenyl)-3,3-dimethylbutane-1-sulfonamide] |
| 9.2 nM | O=S(=O)(CC1CCCC1)Nc1ccc(Oc2ncccc2-c2ccnc(N[C@H]3CCCNC3)n2)c(F)c1F [Compound 228, (S)-1-cyclopentyl-N-(2,3-difluoro-4-((3-(2-(piperidin-3-ylamino)pyrimidin-4-yl)pyridin-2-yl)oxy)phenyl)methanesulfonamide] |
| 6.4 nM | N#Cc1cccc(CS(=O)(=O)Nc2ccc(Oc3ncccc3-c3ccnc(N[C@H]4CCCNC4)n3)c(F)c2F)c1 [Compound 229, (S)-1-(3-cyanophenyl)-N-(2,3-difluoro-4-((3-(2-(piperidin-3-ylamino)pyrimidin-4-yl)pyridin-2-yl)oxy)phenyl)methanesulfonamide] |
| 14 nM | CC(C)(C)CCCS(=O)(=O)Nc1ccc(Oc2ncccc2-c2ccnc(N[C@H]3CCCNC3)n2)c(F)c1F [Compound 230, (S)-N-(2,3-difluoro-4-((3-(2-(piperidin-3-ylamino)pyrimidin-4-yl)pyridin-2-yl)oxy)phenyl)-4,4-dimethylpentane-1-sulfonamide] |
| 7.2 nM | O=S(=O)(Cc1cccc(F)c1)Nc1ccc(Oc2ncccc2-c2ccnc(N[C@H]3CCCNC3)n2)c(F)c1F [Compound 231, (S)-N-(2,3-difluoro-4-((3-(2-(piperidin-3-ylamino)pyrimidin-4-yl)pyridin-2-yl)oxy)phenyl)-1-(3-fluorophenyl)methanesulfonamide] |
